Test results reported in patent US20240299380A1, “APPLICATION OF COMPOUND IN PREPARATION OF DRUG FOR TREATING MYELOFIBROSIS AND RELATED SYMPTOMS/SIGNS THEREOF, AND USE OF COMPOUND” (Betta Pharmaceuticals Co., Ltd, priority 2021, published 2024).

What was measured:
[1] = tested on: HEL cells with JAK2V617F activation mutation; test: CTG cell proliferation assay, HEL cells; assay type: cell-based, human
Description: (§1) The effects of compound 1 on proliferation of human myeloproliferative tumor cells HEL and SET-2 cells with JAK2V617F activation mutation were tested using CTG assay in this example to evaluate half inhibitory rate (IC50) of compound 1 on HEL and SET-2 cell proliferation.
(§2) • a) HEL cells were cultured in RPMI 1640 medium containing 1% PS and 10% FBS. […] The cells were incubated in a humidified incubator with 5% carbon dioxide (CO2) at 37° C.
(§3) • a) Cells were harvested upon reaching a certain density. • b) Cells were resuspended in corresponding medium with a certain density. • c) 30 μL of cell suspension was added into each well of a 384-well plate. For HEL, the density was 1800 cells/well, and for SET-2, 2000 cells/well. • d) Cells were incubated overnight in a humidified incubator with 5% CO2 at 37° C.
(§4) The compounds were diluted with DMSO 6.67 fold from 20 mM to 3 mM, then 3-fold serial dilutions were conducted to make 10 concentrations for each compound. […]
(§5) • a) 30 μL CTG reagent (CelltiterGlo kit) was added to each well, and the plate was subjected to orbital shaking for 2 minutes, then incubated at room temperature in the dark for 30 minutes. • b) Luminescence values were obtained using Envision.
(§6) IC50 (the half maximal inhibitory concentration) was calculated with GraphPad Prism 8 software and following nonlinear fitting formula: […]

[2] = tested on: SET-2 cells with JAK2V617F activation mutation; test: CTG cell proliferation assay, SET-2 cells; assay type: cell-based, human
Description: as §1, §2, §3, §4, §5, §6

[3] = tested on: NF-κB transcriptional activity; test: NF-κB reporter gene assay in HEK293 cells; assay type: cell-based
Description: In present example, reporter gene assay was used to determine the inhibitory effect of compound 1 on NF-κB transcriptional activity in HEK293 cells, to evaluate the effect of the compound on NF-κB transcriptional activity.
• a) All compounds were 3-fold serial diluted from 10 mM for 10 doses in DMSO. • b) The positive compound CDDO-Me was 3-fold serial diluted from 10 mM for 10 doses in DMSO. • c) 1000×positive control ([…]) and 1000×negative control (100% DMSO) were prepared. • d) Compounds plate was sealed and shaked for 5 minutes.
• a) All cells were cultured following ATCC recommendations. […] Digestion was terminated with complete culture medium, and the cells were collected and counted. • d) A total of 6*10^6 HEK293T cells were seeded into a 100 mm cell culture dish. • e) The cells were then incubated overnight in a 5% CO2 incubator. […]
• a) The Britelite plus reagent were allowed to reach room temperature. • b) The 384-well assay plates (prepared at Step 3) were allowed to reach room temperature. • c) 25 μL Britelite plus reagent was added to each well of 384-well assay plate. • d) Luminescence values were recorded with Envision.
[formula] • RLU: relative luminescence units • RLUPositive: The average luminescence value of the blank controls. • RLUvehicle: The average luminescence value of the negative controls. • 5.2 IC50 calculating and compound dose-response curves fitting: […]

[4] = tested on: IL-6 secretion in THP-1 cells; test: IL-6 ELISA in THP-1 cell supernatants following LPS stimulation; assay type: cell-based, Human
Description: The Human IL-6 Valukine ELISA kit (purchased from R&D) was used to measure the IL-6 content in the cell supernatants by ELISA method in this example. The experimental procedures shown below were conducted to determine the effect of compound 1 on IL-6 secretion in THP-1 cell supernatants following LPS stimulation.
THP-1 cells were cultured in RPMI 1640 medium containing 1% PS and 10% FBS and 2-Mercaptoethanol (IX). The cells were incubated in a humidified incubator with 5% carbon dioxide (CO2) at 37° C. […]
• a) 50 μL medium was added to each well. • b) 100 μL CTG reagent (CelltiterGlo kit) was added to each well, and the plate was placed on a orbital shaker for 2 minutes, then placed at room temperature in dark conditions for 30 minutes, and then transferred to CTG plate. • c) The luminescence values were recorded with Envision.
IC50 (The half maximal inhibitory concentration) was calculated using GraphPad Prism 8 software with the following nonlinear fitting formula: […]
[formula] • b) IL-6 detection: X: Log value of Compound concentration, Y: IL-6 concentration (pg/mL) • IL-6 concentration was calculated based on the linear equation of standard dilution concentration and wavelength detection. […]

[5] = Homo sapiens, 72 h, CTG, read-out: IC50 for cell proliferation inhibition

SMILES: Cc1nc2ncc(-c3cn(C)c(=O)c4[nH]ccc34)nc2n1Cc1ccc(C(F)(F)F)cc1 [Compound 1, 6-methyl-4-(2-methyl-1-(4-(trifluoromethyl)benzyl)-1H-imidazo[4,5-b]pyrazin-6-yl)-1H-py rrolo[2,3-c]pyridin-7(6H)-one]
- inhibitory effect on proliferation of HEL cells (in words) [1]: good inhibitory effect
- IC50 [1, 5]: 154 nM
- inhibitory effect on proliferation of SET-2 cells (in words) [2]: good inhibitory effect
- IC50 [2, 5]: 104 nM
- inhibition of the transcriptional activity of NF-κB (in words) ([3]; HEK293 cells stably transfected with the NF-κB reporter gene): significantly inhibited
- IC50 ([3]; Homo sapiens, HEK293 cells with NF-κB reporter gene, 8 ng/ml TNFα, 16-20 h, read-out: IC50 for the inhibition of NF-κB transcriptional activity): 148 nM
- IC50 ([4]; Homo sapiens, THP-1 cells, LPS 4 μg/mL, read-out: IC50 for inhibition of IL-6 secretion in THP-1 cells): 22.4 nM
- inhibition of IL-6 secretion (in words) ([4]; THP1 monocytes, LPS): significantly inhibited
